Molecular target: human chemokine receptor CXCR7 (Homo sapiens (Human), UniProt P25106)
Experiment: Tango CXCR7-bla U2OS beta-arrestin recruitment assay (beta-lactamase reporter, FRET), antagonism of CXCL12/SDF1-α;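 also: compounds preincubated 15 min before CXCL12 addition, then 22 h at 37 °C, FRET emission ratio read with CCF4-AM substrate after 2 h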
Format: cell-based
Conditions: antagonistic effect on CXCR7; Tango CXCR7-bla U2OS cells, CXCL12/SDF1-α at its EC80

Chain of human chemokine receptor CXCR7 (P25106 whole entry): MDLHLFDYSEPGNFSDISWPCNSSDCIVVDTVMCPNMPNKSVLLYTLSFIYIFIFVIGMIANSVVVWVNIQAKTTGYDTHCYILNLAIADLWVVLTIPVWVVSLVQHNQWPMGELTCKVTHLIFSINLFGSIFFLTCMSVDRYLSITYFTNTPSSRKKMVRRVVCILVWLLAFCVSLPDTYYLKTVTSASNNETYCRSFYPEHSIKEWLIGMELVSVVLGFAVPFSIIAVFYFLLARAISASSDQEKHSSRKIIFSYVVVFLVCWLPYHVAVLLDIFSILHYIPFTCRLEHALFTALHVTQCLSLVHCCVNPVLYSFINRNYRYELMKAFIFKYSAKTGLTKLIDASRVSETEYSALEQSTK

Row | IC50 [µM] | SMILES
1 | 0.069 | O=C(N[C@@H]1CCN(C2CCCCC2)C[C@H]1C(=O)NC1(c2ccccn2)CC1)c1noc(-c2ccc(F)cc2F)n1 [Example 3.01]
2 | 0.133 | CC1(NC(=O)[C@H]2CN(C3CCCCC3)CC[C@@H]2NC(=O)c2cc(-c3ccc(F)cc3F)on2)CC1 [Example 4.001, (3S,4S)-1-Cyclohexyl-4-{[5-(2,4-difluoro-phenyl)-isoxazole-3-carbonyl]-amino}-piperidine-3-carboxylic Acid (1-methyl-cyclopropyl)-amide]
3 | 0.06 | COCC(C)(C)NC(=O)[C@H]1CN(C2CCCCC2)CC[C@@H]1NC(=O)c1cc(-c2ccc(F)cc2F)on1 [Example 4.002]
4 | 0.333 | COCCC(C)(C)NC(=O)[C@H]1CN(C2CCCCC2)CC[C@@H]1NC(=O)c1cc(-c2ccc(F)cc2F)on1 [Example 4.003]
5 | 0.319 | O=C(N[C@H]1CCN(C2CCCCC2)C[C@@H]1C(=O)NC1(c2ccc(F)cn2)CC1)c1cc(-c2ccc(F)cc2F)on1 [Example 4.004]
6 | 0.086 | CC(NC(=O)[C@H]1CN(C2CCCC2)CC[C@@H]1NC(=O)c1cc(-c2ccc(F)cc2F)on1)c1ccon1 (some centres unmarked) [Example 4.04]
7 | 0.149 | CC1(NC(=O)[C@H]2CN(C3CCCCC3)CC[C@@H]2NC(=O)c2cc(-c3ccc(F)cc3F)on2)CCC1 [Example 4.006]
8 | 0.052 | CC(NC(=O)[C@H]1CN(C2CCCCC2)CC[C@@H]1NC(=O)c1cc(-c2ccc(F)cc2F)on1)c1ncon1 (some centres unmarked) [Example 4.007]
9 | 0.15 | CC(NC(=O)[C@H]1CN(C2CCCCC2)CC[C@@H]1NC(=O)c1cc(-c2ccc(F)cc2F)on1)c1ccc(F)cn1 (some centres unmarked) [Example 4.008]
10 | 0.573 | C[C@@H](NC(=O)[C@@H]1CN(C2CCCCC2)CC[C@H]1NC(=O)c1cc(-c2ccc(F)cc2F)on1)C1CCC1 [Example 4.009]
11 | 0.145 | O=C(N[C@H]1CCN(C2CCCCC2)C[C@@H]1C(=O)NC(CO)c1ccccn1)c1cc(-c2ccc(F)cc2F)on1 (some centres unmarked) [Example 4.013]
12 | 0.363 | C[C@@H](NC(=O)[C@H]1CN(C2CCCCC2)CC[C@@H]1NC(=O)c1cc(-c2ccc(F)cc2F)on1)C1CCC1 [Example 4.014]
13 | 0.783 | CC(C)(C)NC(=O)[C@@H]1CN(C2CCCCC2)CC[C@H]1NC(=O)c1cc(-c2ccc(F)cc2F)on1 [Example 4.015]
14 | 0.463 | CC1(NC(=O)[C@@H]2CN(C3CCCCC3)CC[C@H]2NC(=O)c2cc(-c3ccc(F)cc3F)on2)CCC1 [Example 4.016]
15 | 0.343 | CC1(NC(=O)[C@@H]2CN(C3CCCCC3)CC[C@H]2NC(=O)c2cc(-c3ccc(F)cc3F)on2)CC1 [Example 4.018]
16 | 0.151 | CC(C)(C#N)NC(=O)[C@@H]1CN(C2CCCCC2)CC[C@H]1NC(=O)c1cc(-c2ccc(F)cc2F)on1 [Example 4.019]
17 | 0.069 | CC(NC(=O)[C@H]1CN(CC2CC2)CC[C@@H]1NC(=O)c1cc(-c2ccc(F)cc2F)on1)c1ccn[nH]1 (some centres unmarked) [Example 4.023]
18 | 0.056 | C[C@@H](NC(=O)[C@H]1CN(CC2CC2)CC[C@@H]1NC(=O)c1cc(-c2ccc(F)cc2F)on1)c1cccnc1 [Example 4.024]
19 | 0.015 | O=C(N[C@H]1CCN(C2CCCC2)C[C@@H]1C(=O)NC1(c2ccncc2)CC1)c1cc(-c2ccc(F)cc2F)on1 [Example 4.026]
20 | 0.008 | O=C(N[C@H]1CCN(CC2CC2)C[C@@H]1C(=O)NC1(c2ccncc2)CC1)c1cc(-c2ccc(F)cc2F)on1 [Example 4.027]
21 | 0.032 | O=C(N[C@H]1CCN(C2CCCC2)C[C@@H]1C(=O)NC1(c2ccccn2)CC1)c1cc(-c2ccc(F)cc2F)on1 [Example 4.028]
22 | 0.004 | O=C(N[C@H]1CCN(CC2CC2)C[C@@H]1C(=O)NC1(c2ccccn2)CC1)c1cc(-c2ccc(F)cc2F)on1 [Example 4.031]
23 | 0.0003 | CC(C)(NC(=O)[C@H]1CN(CC2CC2)CC[C@@H]1NC(=O)c1cc(-c2ccc(F)cc2F)on1)c1ccccn1 [Example 4.033]
24 | 0.255 | Cn1cc(C(C)(C)NC(=O)[C@H]2CN(C3CCCC3)CC[C@@H]2NC(=O)c2cc(-c3ccc(F)cc3F)on2)cn1 [Example 4.034]
25 | 0.056 | Cc1nc(C(C)(C)NC(=O)[C@H]2CN(C3CCCC3)CC[C@@H]2NC(=O)c2cc(-c3ccc(F)cc3F)on2)no1 [Example 4.035]
26 | 0.127 | O=C(N[C@H]1CCN(C2CCCC2)C[C@@H]1C(=O)NC1(C2CC2)CC1)c1cc(-c2ccc(F)cc2F)on1 [Example 4.036]
27 | 0.28 | CC(NC(=O)[C@H]1CN(C2CCCC2)CC[C@@H]1NC(=O)c1cc(-c2ccc(F)cc2F)on1)C1CCCO1 (some centres unmarked) [Example 4.037]
28 | 0.522 | CC(NC(=O)[C@H]1CN(C2CCCC2)CC[C@@H]1NC(=O)c1cc(-c2ccc(F)cc2F)on1)c1nc[nH]n1 (some centres unmarked) [Example 4.038]

The remaining lines, values behind:

Row | SMILES | IC50 [µM]
29 | O=C(NC1CCN(C2CCCC2)CC1C(=O)NC1(c2cccc[n+]2[O-])CC1)c1cc(-c2ccc(F)cc2F)on1 (centres unmarked) [Example 2.062] | 0.023
30 | O=C(N[C@@H]1CCN(C2CCCC2)C[C@H]1C(=O)NC1(c2cccc[n+]2[O-])CC1)c1cc(-c2ccc(F)cc2F)on1 [Example 2.062a] | 0.298
31 | O=C(N[C@H]1CCN(C2CCCC2)C[C@@H]1C(=O)NC1(c2cccc[n+]2[O-])CC1)c1cc(-c2ccc(F)cc2F)on1 [Example 2.062b] | 0.014
32 | O=C(N[C@H]1CCN(C2CCC2)C[C@@H]1C(=O)NC1(c2cccc[n+]2[O-])CC1)c1cc(-c2ccc(F)cc2F)on1 [Example 2.063] | 0.219
33 | N#CC1(NC(=O)[C@@H]2CN(C3CCCC3)CC[C@H]2NC(=O)c2cc(-c3ccc(F)cc3F)on2)CCC1 [Example 2.064] | 0.084
34 | O=C(N[C@H]1CCN(CC2CCCC2)C[C@@H]1C(=O)NC1(c2ncccn2)CC1)c1cc(-c2ccc(F)cc2F)on1 [Example 2.065] | 0.001
35 | O=C(N[C@H]1CCN(CC2(C(F)F)CC2)C[C@@H]1C(=O)NC1(c2ncccn2)CC1)c1cc(-c2ccc(F)cc2F)on1 [Example 2.067] | 0.018
36 | O=C(N[C@H]1CCN(Cc2ccc(F)cc2)C[C@@H]1C(=O)NC1(c2ncccn2)CC1)c1cc(-c2ccc(F)cc2F)on1 [Example 2.068] | 0.012
37 | CC(C)(C)CN1CC[C@H](NC(=O)c2cc(-c3ccc(F)cc3F)on2)[C@@H](C(=O)NC2(c3ncccn3)CC2)C1 [Example 2.069] | 0.006
38 | O=C(N[C@H]1CCN(Cc2ccccc2)C[C@@H]1C(=O)NC1(c2ncccn2)CC1)c1cc(-c2ccc(F)cc2F)on1 [Example 2.071] | 0.008
39 | CCN(C)C(=O)[C@@H]1CN(C2CCCC2)CC[C@H]1NC(=O)c1cc(-c2ccc(F)cc2F)on1 [Example 2.076] | 0.071
40 | CCN(C)C(=O)[C@@H]1CN(CC2CC2)CC[C@H]1NC(=O)c1cc(-c2ccc(F)cc2F)on1 [Example 2.077] | 0.112
41 | CN(CCc1ccccn1)C(=O)[C@@H]1CN(C2CCCC2)CC[C@H]1NC(=O)c1cc(-c2ccc(F)cc2F)on1 [Example 2.078] | 0.072
42 | CN(CCc1ccccn1)C(=O)[C@@H]1CN(CC2CC2)CC[C@H]1NC(=O)c1cc(-c2ccc(F)cc2F)on1 [Example 2.079] | 0.038
43 | CN(C)C(=O)[C@@H]1CN(Cc2ccccc2)CC[C@H]1NC(=O)c1cc(-c2ccc(F)cc2F)on1 [Example 2.081] | 0.118
44 | CN(C)C(=O)[C@@H]1CN(Cc2ccccc2Cl)CC[C@H]1NC(=O)c1cc(-c2ccc(F)cc2F)on1 [Example 2.082] | 0.342
45 | CN(C)C(=O)[C@@H]1CN(Cc2ccccc2F)CC[C@H]1NC(=O)c1cc(-c2ccc(F)cc2F)on1 [Example 2.083] | 0.777

Row | SMILES | IC50 [µM]
46 | O=C(N[C@H]1CCN(CC2CC2(F)F)C[C@@H]1C(=O)NC1(c2ncccn2)CC1)c1cc(-c2ccc(F)cc2F)on1 (some centres unmarked) [Example 2.084] | 0.008
47 | CN(C)C(=O)[C@@H]1CN(Cc2ccn(C)c2)CC[C@H]1NC(=O)c1cc(-c2ccc(F)cc2F)on1 [Example 2.085] | 0.179
48 | O=C(N[C@H]1CCN(CC2CC2)C[C@@H]1C(=O)NC1(c2ccccn2)CC1)c1cn(-c2ccc(F)cc2F)nn1 [Example 2.091] | 0.062
49 | O=C(N[C@H]1CCN(C2CCCC2)C[C@@H]1C(=O)NC1(c2ccccn2)CC1)c1cn(-c2ccc(F)cc2F)nn1 [Example 2.092] | 0.095
50 | C=CCN1CC[C@H](NC(=O)c2cc(-c3ccc(F)cc3F)on2)[C@@H](C(=O)NC2(c3ncccn3)CC2)C1 [Example 2.093] | 0.026
51 | O=C(N[C@H]1CCN(C2CC3CC3C2)C[C@@H]1C(=O)NC1(c2ncccn2)CC1)c1cc(-c2ccc(F)cc2F)on1 (some centres unmarked) [Example 2.094] | 0.002
52 | O=C(N[C@H]1CCNC[C@@H]1C(=O)NC1(c2ncccn2)CC1)c1ncc(-c2ccc(F)cc2F)o1 [Example 2.096] | 0.634
53 | O=C(N[C@H]1CCN(C2CCC2)C[C@@H]1C(=O)NC1(c2ncccn2)CC1)c1ncc(-c2ccc(F)cc2F)o1 [Example 2.097] | 0.65
54 | O=C(N[C@H]1CCN(C2CCCC2)C[C@@H]1C(=O)NC1(c2ncccn2)CC1)c1ncc(-c2ccc(F)cc2F)o1 [Example 2.098] | 0.094
55 | CC(C)N1CC[C@H](NC(=O)c2ncc(-c3ccc(F)cc3F)o2)[C@@H](C(=O)NC2(c3ncccn3)CC2)C1 [Example 2.099] | 0.343
56 | O=C(N[C@H]1CCN(CC2CC(F)(F)C2)C[C@@H]1C(=O)NC1(c2ncccn2)CC1)c1cc(-c2ccc(F)cc2F)on1 [Example 2.101] | 0.029
57 | O=C(N[C@H]1CCN(C2CSC2)C[C@@H]1C(=O)NC1(c2ncccn2)CC1)c1cc(-c2ccc(F)cc2F)on1 [Example 2.102] | 0.411
58 | O=C(N[C@H]1CCN(C2CC3(CC3)C2)C[C@@H]1C(=O)NC1(c2ncccn2)CC1)c1cc(-c2ccc(F)cc2F)on1 [Example 2.103] | 0.004
59 | O=C(N[C@H]1CCNC[C@@H]1C(=O)NC1(c2ncccn2)CC1)c1nnc(-c2ccc(F)cc2F)s1 [Example 2.104] | 0.195
60 | O=C(N[C@H]1CCN(C2CCC2)C[C@@H]1C(=O)NC1(c2ncccn2)CC1)c1nnc(-c2ccc(F)cc2F)s1 [Example 2.105] | 0.06
61 | O=C(N[C@H]1CCN(CC2(F)CC2)C[C@@H]1C(=O)NC1(c2ncccn2)CC1)c1nnc(-c2ccc(F)cc2F)s1 [Example 2.106] | 0.013
62 | CCN1CC[C@H](NC(=O)c2nnc(-c3ccc(F)cc3F)s2)[C@@H](C(=O)NC2(c3ncccn3)CC2)C1 [Example 2.107] | 0.114

Reference: patent US11306078B2, “Piperidine CXCR7 receptor modulators” (IDORSIA PHARMACEUTICALS LTD., priority 2016, dated 2022)
